Assay [1] concerns the target T1, Muscarinic acetylcholine receptor M1 (Homo sapiens) (UniProt P11229).
T1 sequence (whole entry): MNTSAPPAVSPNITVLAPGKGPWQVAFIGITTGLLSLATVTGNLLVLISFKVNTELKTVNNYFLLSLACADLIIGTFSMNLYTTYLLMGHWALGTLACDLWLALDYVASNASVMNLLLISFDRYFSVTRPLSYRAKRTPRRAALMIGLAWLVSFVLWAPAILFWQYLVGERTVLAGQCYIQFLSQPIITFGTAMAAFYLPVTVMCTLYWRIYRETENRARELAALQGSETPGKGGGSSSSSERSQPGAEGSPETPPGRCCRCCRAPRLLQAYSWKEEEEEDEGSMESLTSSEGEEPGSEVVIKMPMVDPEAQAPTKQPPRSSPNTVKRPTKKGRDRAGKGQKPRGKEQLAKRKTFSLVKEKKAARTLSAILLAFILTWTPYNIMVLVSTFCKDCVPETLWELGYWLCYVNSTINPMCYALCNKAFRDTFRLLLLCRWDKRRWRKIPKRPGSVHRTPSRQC
The assay can be described thus: Percent stimulation of phospholipid hydrolysis in BHK cells transfected with human Muscarinic acetylcholine receptor M1 compared to maximal stimulation of carbachol at a dose of 100 uM. It is filed as functional, cell-based.

Assay [2] addresses T2, Muscarinic acetylcholine receptor M1 (Rattus norvegicus, UniProt P08482).
T2 sequence (P08482 whole entry): T1 sequence (whole entry) with A5V, T254S, P309S, R320K, A337G, I413V
The assay can be described thus: In vitro binding affinity towards Muscarinic acetylcholine receptor M1 by the displacement of [3H]pirenzepine in rat cerebral cortical membranes. The class given is cell membranes, Membrane.

Assay [3] concerns the target T2, Muscarinic acetylcholine receptor M1. In words: In vitro binding affinity towards Muscarinic acetylcholine receptor M1 by the displacement of [3H]oxotremorine-M in rat brain membranes. The class given is cell membranes. For orientation: Loss of bound radioactivity is the signal in a displacement assay; it reports binding, not function.

The source of these data is ChEMBL document CHEMBL1127972 (Bioorg Med Chem Lett, 1994).

As usually defined, the IC50 is the midpoint of a concentration-inhibition curve.

Molecules are shown by their SMILES. Changes are numbered by the printed parent chain.

Turning to `CCCCOc1nsnc1C1=CCC(C)N(C)C1` (stereo not drawn), the Stimulation in assay [1] was 9%. Besides, the IC50 in assay [2] amounted to 8 nM; in assay [3], 9 nM.

Molecule `CCCOc1nsnc1C1=CC(C)CN(C)C1` (stereo not drawn) showed a Stimulation in assay [1] of 6%. Moreover, the half-inhibitory concentration (IC50) was found to be 15 nM in assay [2] and 17 nM in assay [3].

For the molecule `CCCCCCOc1nsnc1C1=CCCN(C)C1C` (stereo not drawn), the results for the IC50 in assay [2] and in assay [3] were 48 nM and 83 nM, respectively.

For `CCCCCCOc1nsnc1C1=CC(C)CN(C)C1` (stereo not drawn), the Stimulation in assay [1] was determined as 12%. Also, the IC50 in assay [2] was found to be 7 nM; in assay [3], 14 nM.

In the case of `CCCCCCOc1nsnc1C1=CCC(C)N(C)C1` (stereo not drawn), the Stimulation in assay [1] is 27%. The IC50 in assay [2] was determined as 5 nM; in assay [3], 6 nM.

Turning to `CCCCCCOc1nsnc1C1=CCCN(C)C1`, in assay [1], the Stimulation is 70%.

As to `CCOc1nsnc1C1=CCC(C)N(C)C1` (stereo not drawn), in assay [1], the Stimulation turned out to be 10%. For the same molecule, the concentration for half-maximal inhibition (IC50) came to 24 nM in assay [2] and 11 nM in assay [3].

With `CCCCCOc1nsnc1C1=CCC(C)N(C)C1` (stereo not drawn), the Stimulation in assay [1] was 18%. Also, the 50% inhibitory concentration (IC50) in assay [2] is 5 nM; in assay [3], 9 nM.

Turning to `CCCOc1nsnc1C1=CCCN(C)C1`, the Stimulation in assay [1] is 25%. The same molecule gave an IC50 in assay [3] of 2 nM.

`C=CCCCOc1nsnc1C1=CCC(C)N(C)C1` (stereo not drawn): the Stimulation in assay [1] was determined as 12%. Moreover, the 50% inhibitory concentration (IC50) in assay [2] worked out at 8 nM; in assay [3], 10 nM.

Turning to `CCC#CCCOc1nsnc1C1=CCC(C)N(C)C1` (stereo not drawn), the Stimulation in assay [1] came to 12%. Moreover, the IC50 in assay [2] was found to be 5 nM; in assay [3], 6 nM.

Consider `CCCCCCOc1nsnc1C1=CC2(C)CCCCC2(C)N(C)C1` (stereo not drawn), for which the IC50 in assay [2] was 1230 nM; in assay [3] it was 1000 nM.

Take `COc1nsnc1C1=CC(C)CN(C)C1` (stereo not drawn): the half-inhibitory concentration (IC50) in assay [2] came out at 580 nM; in assay [3], 600 nM.

Regarding `COc1nsnc1C1=C(C)CCN(C)C1`, the half-maximal inhibitory concentration (IC50) in assay [2] and in assay [3] was 1000 nM throughout.

For `CCCCCCOc1nsnc1C1=C(C)CCN(C)C1`, the figures for the half-maximal inhibitory concentration (IC50) in assay [2] and in assay [3] were 112 nM and 100 nM, respectively.

With `COc1nsnc1C1=CCCN(C)C1`, in assay [1], the Stimulation was found to be 7%.
